Experiments:
[1] = system: TNFα secretion from stimulated white blood cells; assay: Secondary screen, TNFα ELISA, white blood cells stimulated using 1 μg/ml LPS; assay type: cell-based, human
Protocol: (§1) Stock solutions at 1.6 mg/ml of alprostadil, and 4.0 mg/ml of […] (Sigma-Aldrich, St. Louis, Mo.; catalog numbers P5515 and R-2625, respectively) were made in dimethylsulfoxide (DMSO). The alprostadil master plates were made by adding 25 μl of the concentrated stock solution to columns 3, 9, and 15 (rows C through N) of a polypropylene 384-well storage plate that had been pre-filled with 75 μl of anhydrous DMSO. Using a TomTec Quadra Plus liquid handler, the 25 μl of alprostadil stock solution was serially diluted four times into the adjacent columns (columns 4-7, 10-13, 16-19). […] The tretinoin master plates were made by adding 25 μl of the concentrated stock solution to the appropriate wells (row C, columns 3-8; row C, columns 9-14; row C, columns 15-20; row I, columns 3-8; row I, columns 9-14; row I, columns 15-20) of the appropriate master polypropylene 384-well storage plate. These master plates had been pre-filled with 75 μl of anhydrous DMSO. Using the TomTec Quadra Plus liquid handler, the 25 μl was serially diluted four times in the adjacent rows (rows D-G, and J-M). […] Master plates were sealed and stored at −20° C. until ready for use.
This dilution plate was then mixed and a 10 μl aliquot transferred to the final assay plate, which had been pre-filled with 40 μl/well RPM media containing the appropriate stimulant to activate TNFα secretion (see below).
(§2) The compound dilution matrix was assayed using a TNFα ELISA method. Briefly, a […] suspension of diluted human white blood cells contained within each well of a polystyrene 384-well plate (NalgeNunc) was stimulated to secrete TNFα by treatment with a final concentration of 10 ng/ml phorbol 12-myristate 13-acetate (Sigma) and 750 ng/ml ionomycin (Sigma). Various concentrations of each test compound were added at the time of stimulation. After 16-18 hours of incubation at 37° C. in a humidified incubator, the plate was centrifuged and the supernatant transferred to a white opaque polystyrene 384 well plate (NalgeNunc, Maxisorb) coated with an anti-TNFα antibody (PharMingen, #18631D). After a two-hour incubation, the plate was washed (Tecan PowerWasher 384) with phosphate buffered saline (PBS) containing 0.1% Tween 20 (polyoxyethylene sorbitan monolaurate) and incubated for an additional one hour with another anti-TNFα antibody that was biotin labeled (PharMingen, 18642D) and horseradish peroxidase (HRP) coupled to strepavidin (PharMingen, #13047E).). After the plate was washed with 0.1% Tween 20/PBS, an HRP-luminescent substrate was added to each well and light intensity measured using a LJL Analyst plate luminometer. Sets of control wells contained a serial dilution of Cyclosporin A (Sigma) starting at a final concentration of 0.5 μg/ml.
In this experiment, white blood cells were stimulated using 1 μg/ml LPS.

[2] = system: TNFα secretion from stimulated white blood cells; assay: TNFα ELISA, white blood cells stimulated with phorbol 12-myristate 13-acetate and ionomycin; assay type: cell-based, human; design: inhibition of TNFα secretion: dose or concentration left out as unconfirmed; settings: PMA/ionomycin
Protocol: as §1
The final alprostadil/tretinoin combination plates were generated by transferring 1 μl from each of the alprostadil and tretinoin master plates to a dilution plate containing 100 μl of media (RPMI; Gibco BRL, #11875-085), 10% Fetal Bovine Serum (Gibco BRL, #25140-097), 2% Penicillin/Streptomycin (Gibco BRL, #15140-122)) using the TomTec Quadra Plus liquid handler. This dilution plate was then mixed and a 10 μl aliquot transferred to the final assay plate, which had been pre-filled with 40 μl/well RPM media containing the appropriate stimulant to activate TNFα secretion (see below).
as §2
The combination of 0.052 μM tretinoin and 0.004 μM alprostadil was able to suppress TNFα secretion by 42%. […] Maximal tretinoin efficacy (−36% TNFα suppression) is therefore maintained while reducing the concentration of total drug species by greater than 90% (0.052 μM tretionoin+0.004 μM alprostadil compared to 0.832 μM tretinoin alone).

[3] = Homo sapiens, Alprostadil 0.004 μM alone
[4] = Homo sapiens, Alprostadil 0.018 μM alone
[5] = Homo sapiens, Alprostadil 0.071 μM alone
[6] = Homo sapiens, Tretinoin 0.052 μM alone
[7] = Homo sapiens, Tretinoin 0.208 μM alone
[8] = Homo sapiens, Tretinoin 0.832 μM alone
[9] = Homo sapiens, Tretinoin 3.329 μM alone
[10] = Homo sapiens, Tretinoin 13.316 μM alone

SMILES: CCCCC[C@H](O)/C=C/[C@H]1[C@H](O)CC(=O)[C@@H]1CCCCCCC(=O)O [Alprostadil, (11α, 13E, 15S)-11,15-dihydroxy-9-oxoprost-13-enoic acid]
- inhibition at 0.004 µM [1, 3]: 44.6%
- inhibition at 0.009 µM ([1]; Homo sapiens, Alprostadil 0.009 μM alone): 49.2%
- inhibition at 0.018 µM [1, 4]: 54.8%
- inhibition at 0.035 µM ([1]; Homo sapiens, Alprostadil 0.035 μM alone): 57.3%
- inhibition at 0.071 µM [1, 5]: 71.5%
- inhibition at 0.141 µM ([1]; Homo sapiens, Alprostadil 0.141 μM alone): 74.3%
- inhibition at 0.282 µM ([1]; Homo sapiens, Alprostadil 0.282 μM alone): 75.7%
- inhibition at 0.564 µM ([1]; Homo sapiens, Alprostadil 0.564 μM alone): 79.5%
- inhibition at 1.128 µM ([1]; Homo sapiens, Alprostadil 1.128 μM alone): 81.6%
- alprostadil concentration needed alone to attain 64.0% TNFα inhibition ([1]; alprostadil alone): ≥ 0.035 µM
- maximal TNFα-inhibitory effect ([1]; alprostadil alone, concentration of at least 1.128 μM): 82%
- inhibition at 0.004 µM [2, 3]: 33.3%
- inhibition at 0.018 µM [2, 4]: 39.8%
- inhibition at 0.071 µM [2, 5]: 50.5%
- inhibition at 0.283 µM ([2]; Homo sapiens, Alprostadil 0.283 μM alone): 53.8%
- inhibition at 1.13 µM ([2]; Homo sapiens, Alprostadil 1.130 μM alone): 56.8%
- inhibition of TNFα secretion ([2]; alprostadil alone): 57%

SMILES: CC1=C(/C=C/C(C)=C/C=C/C(C)=C/C(=O)O)C(C)(C)CCC1 [Tretinoin, 3,7-dimethyl-9-(2,6,6-trimethylcyclohex-1-enyl)nona-2,4,6,8-all-trans-tetraenoic acid]
- inhibition at 0.052 µM [1, 6]: 32.7%
- inhibition at 0.104 µM ([1]; Homo sapiens, Tretinoin 0.104 μM alone): 35.1%
- inhibition at 0.208 µM [1, 7]: 32.5%
- inhibition at 0.416 µM ([1]; Homo sapiens, Tretinoin 0.416 μM alone): 32.7%
- inhibition at 0.832 µM [1, 8]: 38.4%
- inhibition at 1.664 µM ([1]; Homo sapiens, Tretinoin 1.664 μM alone): 37.6%
- inhibition at 3.329 µM [1, 9]: 44.1%
- inhibition at 6.658 µM ([1]; Homo sapiens, Tretinoin 6.658 μM alone): 48.7%
- inhibition at 13.316 µM [1, 10]: 52.1%
- TNFα inhibition ([1]; tretinoin alone, concentrations from 6.7-13.3 μM): approximately 50%
- inhibition at 0.052 µM [2, 6]: 13.8%
- inhibition at 0.208 µM [2, 7]: 28.7%
- inhibition at 0.832 µM [2, 8]: 34.5%
- inhibition at 3.329 µM [2, 9]: 34.1%
- inhibition at 13.316 µM [2, 10]: 36.2%
- maximal inhibition of TNFα secretion ([2]; tretinoin alone, concentrations ranging from 0.83-13.3 μM): 36%

From patent publication US20050159485A1, “Combinations for the treatment of immunoinflammatory disorders and proliferative skin diseases” (priority 2002, published 2005)
